Test results: patent US20260001928A1 (CORTERIA PHARMACEUTICALS, priority 2022, published 2026)
*1 amine or outer side, *2 acyl side, *3 side chain or, on linkers, in order; H or OH if unused. Where a SMILES comes first, the peptide text is derived from it. Side-chain parts run from the residue outwards. [ ]: non-standard residue; d: D form. The star is where a group is joined. C18 diacid = O=C(O)CCCCCCCCCCCCCCCCC(=O)*; C16 diacid = O=C(O)CCCCCCCCCCCCCCC(=O)*; γGlu = O=C(O)[C@H](CCC(=O)[*:2])N[*:1]; NMeI = CC[C@H](C)[C@H](NC)C(=O)O; αMeL = CC(C)C[C@](C)(N)C(=O)O; Dap = NC[C@H](N)C(=O)O; AEEA = NCCOCCOCC(=O)O; Aib = CC(C)(N)C(=O)O

Key:
human CRF2a receptor = biological target: T1, human CRF2a receptor (Homo sapiens, UniProt Q13324); assay: Activity at human CRF2a receptor, cAMP functional assay in TeloHEAC cells; assay type: cell-based; conditions: TeloHEAC cells stably expressing human CRF2a receptor, relative to urocortin 2 (100 nM = 100%)
T1 construct: expressed in transfected cells; host or cells: TeloHEAC cells
T1 sequence (Q13324 1-411): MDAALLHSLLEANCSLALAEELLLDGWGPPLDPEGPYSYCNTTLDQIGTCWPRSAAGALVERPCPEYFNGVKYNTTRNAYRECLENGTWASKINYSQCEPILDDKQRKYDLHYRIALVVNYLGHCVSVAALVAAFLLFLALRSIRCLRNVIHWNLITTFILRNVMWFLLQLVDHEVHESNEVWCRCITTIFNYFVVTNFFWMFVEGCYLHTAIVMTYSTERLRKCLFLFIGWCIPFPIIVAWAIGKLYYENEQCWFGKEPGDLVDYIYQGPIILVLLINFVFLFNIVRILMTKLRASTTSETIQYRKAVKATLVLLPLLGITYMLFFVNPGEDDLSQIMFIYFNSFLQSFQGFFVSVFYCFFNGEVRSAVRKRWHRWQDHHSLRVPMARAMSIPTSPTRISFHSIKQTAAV
In short: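 TeloHEAC cells stably expressing human CRF2a (10000 cells/well) were treated with 16-point 1:2 compound dilutions in HBSS/20 mM HEPES with IBMX for 30 min at 37° C. cAMP was read by HTRF (665/620 nm ratio). EC50 was the concentration giving 50% activation, with 100 nM urocortin 2 set as 100%.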

CFR1R receptor = biological target: T2, CFR1R receptor (Homo sapiens, UniProt P34998); assay: Activity at anti-target CFR1R receptor, cAMP assay in CRF1R-overexpression CHO-K1 cells; assay type: cell-based; conditions: 100% = Sauvagine at 100 nM; for EC50: cAMP
T2 construct: host or cells: CHO-K1 (clone 2)
T2 sequence (P34998 24-415): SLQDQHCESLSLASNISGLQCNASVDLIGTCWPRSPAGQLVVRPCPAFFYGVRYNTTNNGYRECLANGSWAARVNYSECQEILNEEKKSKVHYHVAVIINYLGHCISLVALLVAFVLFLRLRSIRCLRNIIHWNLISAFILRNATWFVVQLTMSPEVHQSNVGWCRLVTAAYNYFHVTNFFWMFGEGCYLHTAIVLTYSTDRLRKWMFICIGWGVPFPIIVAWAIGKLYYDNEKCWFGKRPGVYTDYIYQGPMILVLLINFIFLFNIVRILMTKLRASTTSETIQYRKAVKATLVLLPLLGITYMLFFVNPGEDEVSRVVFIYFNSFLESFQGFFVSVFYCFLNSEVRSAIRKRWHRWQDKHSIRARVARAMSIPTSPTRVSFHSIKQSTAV
In short: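 Clone 2; cryopreserved stocks (10% DMSO); 4000 cells/well final; 100% activation = Sauvagine 100 nM; otherwise as TeloHAEC protocol.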

Compound | EC50 (human CRF2a receptor) | Emax (% I) (CFR1R receptor) | EC50 (CFR1R receptor)
CC[C@H](C)[C@H](NC(C)=O)C(=O)N[C@H](C(=O)N[C@@H](CC(C)C)C(=O)N[C@@H](CO)C(=O)N[C@@H](CC(C)C)C(=O)N[C@@H](CC(=O)O)C(=O)N[C@@H](C(=O)N1CCC[C@H]1C(=O)N[C@H](C(=O)N[C@@H](CCCCN)C(=O)N[C@@H](CC(C)C)C(=O)N[C@@H](CCCCNC(=O)COCCOCCNC(=O)COCCOCCNC(=O)CC[C@H](NC(=O)CCCCCCCCCCCCCCCCC(=O)O)C(=O)O)C(=O)N[C@@H](CCCCN)C(=O)N[C@H](C(=O)N[C@@H](CC(C)C)C(=O)N[C@@H](CC(C)C)C(=O)N[C@@H](CCC(=O)O)C(=O)N[C@@H](CCC(N)=O)C(=O)N[C@@H](CCC(=O)O)C(=O)N[C@@H](CCCCN)C(=O)N[C@@H](CCC(N)=O)C(=O)N[C@@H](CCCCN)C(=O)N[C@@H](CCCCN)C(=O)N[C@@H](CCC(N)=O)C(=O)N[C@@H](CCCNC(=N)N)C(=O)N[C@@H](CCC(=O)O)C(=O)N[C@@H](CCC(N)=O)C(=O)N[C@@H](C)C(=O)N[C@@H](CCC(=O)O)C(=O)N[C@H](C(=O)N[C@@H](CC(N)=O)C(=O)N[C@@H](CCC(=O)O)C(=O)N[C@@H](CCC(N)=O)C(=O)N[C@H](C(=O)N[C@@H](CC(C)C)C(=O)N[C@@H](C)C(=O)N[C@@H](CCC(N)=O)C(=O)N[C@H](C(N)=O)C(C)C)[C@@H](C)CC)[C@@H](C)O)[C@@H](C)CC)[C@@H](C)CC)C(C)C)C(C)C [compound 108] (Ac-IVLSLD[dV]PIKLK([AEEA-AEEA-γGlu-C18 diacid])KILLEQEKQKKQREQAETNEQILAQV-NH2) | 1.14 nM | 4 % I | > 250 nM
CC[C@H](C)[C@H](NC)C(=O)N[C@H](C(=O)N[C@@H](CC(C)C)C(=O)N[C@@H](CO)C(=O)N[C@@H](CC(C)C)C(=O)N[C@@H](CC(=O)O)C(=O)N[C@@H](C(=O)N1CCC[C@H]1C(=O)N[C@H](C(=O)N[C@@H](CCCCN)C(=O)N[C@@H](CC(C)C)C(=O)N[C@@H](CCCCNC(=O)COCCOCCNC(=O)COCCOCCNC(=O)CC[C@H](NC(=O)CCCCCCCCCCCCCCCCC(=O)O)C(=O)O)C(=O)N[C@@H](CCCCN)C(=O)N[C@H](C(=O)N[C@@H](CC(C)C)C(=O)N[C@@H](CC(C)C)C(=O)N[C@@H](CCC(=O)O)C(=O)N[C@@H](CCC(N)=O)C(=O)N[C@@H](CCC(=O)O)C(=O)N[C@@H](CCCCN)C(=O)N[C@@H](CCC(N)=O)C(=O)N[C@@H](CCCCN)C(=O)N[C@@H](CCCCN)C(=O)N[C@@H](CCC(N)=O)C(=O)N[C@@H](CCCNC(=N)N)C(=O)N[C@@H](CCC(=O)O)C(=O)N[C@@H](CCC(N)=O)C(=O)N[C@@H](C)C(=O)N[C@@H](CCC(=O)O)C(=O)N[C@H](C(=O)N[C@@H](CC(N)=O)C(=O)N[C@@H](CN)C(=O)N[C@@H](CCC(N)=O)C(=O)N[C@H](C(=O)N[C@@H](CC(C)C)C(=O)N[C@@H](C)C(=O)N[C@@H](CCC(N)=O)C(=O)N[C@H](C(N)=O)C(C)C)[C@@H](C)CC)[C@@H](C)O)[C@@H](C)CC)[C@@H](C)CC)C(C)C)C(C)C [compound 115] (H-[NMeI]VLSLD[dV]PIKLK([AEEA-AEEA-γGlu-C18 diacid])KILLEQEKQKKQREQAETN[Dap]QILAQV-NH2) | 0.76 nM | 4 % I | > 250 nM
CC[C@H](C)[C@H](NC)C(=O)N[C@H](C(=O)N[C@@H](CC(C)C)C(=O)N[C@@H](CO)C(=O)N[C@@H](CC(C)C)C(=O)N[C@@H](CC(=O)O)C(=O)N[C@@H](C(=O)N1CCC[C@H]1C(=O)N[C@H](C(=O)N[C@@H](CCCCN)C(=O)N[C@@H](CC(C)C)C(=O)N[C@@H](CCCCNC(=O)CC[C@H](NC(=O)CCCCCCCCCCCCCCCCC(=O)O)C(=O)O)C(=O)N[C@@H](CCCCN)C(=O)N[C@H](C(=O)N[C@@H](CC(C)C)C(=O)N[C@@H](CC(C)C)C(=O)N[C@@H](CCC(=O)O)C(=O)N[C@@H](CCC(N)=O)C(=O)N[C@@H](CCC(=O)O)C(=O)N[C@@H](CCCCN)C(=O)N[C@@H](CCC(N)=O)C(=O)N[C@@H](CCCCN)C(=O)N[C@@H](CCCCN)C(=O)N[C@@H](CCC(N)=O)C(=O)N[C@@H](CCCNC(=N)N)C(=O)N[C@@H](CCC(=O)O)C(=O)N[C@@H](CCC(N)=O)C(=O)N[C@@H](C)C(=O)N[C@@H](CCC(=O)O)C(=O)N[C@H](C(=O)N[C@@H](CC(N)=O)C(=O)NC(C)(C)C(=O)N[C@@H](CCC(N)=O)C(=O)N[C@H](C(=O)N[C@@H](CC(C)C)C(=O)N[C@@H](C)C(=O)N[C@@H](CCC(N)=O)C(=O)N[C@H](C(N)=O)C(C)C)[C@@H](C)CC)[C@@H](C)O)[C@@H](C)CC)[C@@H](C)CC)C(C)C)C(C)C [compound 137] (H-[NMeI]VLSLD[dV]PIKLK([γGlu-C18 diacid])KILLEQEKQKKQREQAETN[Aib]QILAQV-NH2) | 0.07 nM | 9 % I | > 250 nM
CC[C@H](C)[C@H](NC(C)=O)C(=O)N[C@H](C(=O)N[C@@H](CC(C)C)C(=O)N[C@@H](CO)C(=O)N[C@@H](CC(C)C)C(=O)N[C@@H](CC(=O)O)C(=O)N[C@@H](C(=O)N1CCC[C@H]1C(=O)N[C@H](C(=O)N[C@@H](CCCCN)C(=O)N[C@@](C)(CC(C)C)C(=O)N[C@@H](CCCCNC(=O)COCCOCCNC(=O)COCCOCCNC(=O)CC[C@H](NC(=O)CCCCCCCCCCCCCCCCC(=O)O)C(=O)O)C(=O)N[C@@H](CCCCN)C(=O)N[C@H](C(=O)N[C@@H](CC(C)C)C(=O)N[C@@H](CC(C)C)C(=O)N[C@@H](CCC(=O)O)C(=O)N[C@@H](CCC(N)=O)C(=O)N[C@@H](CCC(=O)O)C(=O)N[C@@H](CCCCN)C(=O)N[C@@H](CCC(N)=O)C(=O)N[C@@H](CCCCN)C(=O)N[C@@H](CCCCN)C(=O)N[C@@H](CCC(N)=O)C(=O)N[C@@H](CCCNC(=N)N)C(=O)N[C@@H](CCC(=O)O)C(=O)N[C@@H](CCC(N)=O)C(=O)N[C@@H](C)C(=O)N[C@@H](CCC(=O)O)C(=O)N[C@H](C(=O)N[C@@H](CC(N)=O)C(=O)N[C@H](C(=O)N[C@@H](CCC(N)=O)C(=O)N[C@H](C(=O)N[C@@H](CC(C)C)C(=O)N[C@@H](C)C(=O)N[C@@H](CCC(N)=O)C(=O)N[C@H](C(N)=O)C(C)C)[C@@H](C)CC)C(C)C)[C@@H](C)O)[C@@H](C)CC)[C@@H](C)CC)C(C)C)C(C)C [compound 111] (Ac-IVLSLD[dV]PIK[αMeL]K([AEEA-AEEA-γGlu-C18 diacid])KILLEQEKQKKQREQAETNVQILAQV-NH2) | 2.58 nM | −3 % I | > 250 nM
CC[C@H](C)[C@H](NC(C)=O)C(=O)N[C@H](C(=O)N[C@@H](CC(C)C)C(=O)N[C@@H](CO)C(=O)N[C@@H](CC(C)C)C(=O)N[C@@H](CC(=O)O)C(=O)N[C@@H](C(=O)N1CCC[C@H]1C(=O)N[C@H](C(=O)N[C@@H](CCCCN)C(=O)N[C@@H](CC(C)C)C(=O)N[C@@H](CCCCNC(=O)CC[C@H](NC(=O)CCCCCCCCCCCCCCC(=O)O)C(=O)O)C(=O)N[C@@H](CCCCN)C(=O)N[C@H](C(=O)N[C@@H](CC(C)C)C(=O)N[C@@H](CC(C)C)C(=O)N[C@@H](CCC(=O)O)C(=O)N[C@@H](CCC(N)=O)C(=O)N[C@@H](CCC(=O)O)C(=O)N[C@@H](CCCCN)C(=O)N[C@@H](CCC(N)=O)C(=O)N[C@@H](C)C(=O)N[C@@H](CCCCN)C(=O)N[C@@H](CCC(N)=O)C(=O)N[C@@H](CCCNC(=N)N)C(=O)N[C@@H](CCC(=O)O)C(=O)N[C@@H](CCC(N)=O)C(=O)N[C@@H](C)C(=O)N[C@@H](CCC(=O)O)C(=O)N[C@H](C(=O)N[C@@H](CC(N)=O)C(=O)NC(C)(C)C(=O)N[C@@H](CCC(N)=O)C(=O)N[C@H](C(=O)N[C@@H](CC(C)C)C(=O)N[C@@H](C)C(=O)N[C@@H](CCC(N)=O)C(=O)N[C@H](C(N)=O)C(C)C)[C@@H](C)CC)[C@@H](C)O)[C@@H](C)CC)[C@@H](C)CC)C(C)C)C(C)C [compound 166] (Ac-IVLSLD[dV]PIKLK([γGlu-C16 diacid])KILLEQEKQAKQREQAETN[Aib]QILAQV-NH2) | 0.77 nM | 5 % I | > 250 nM
